Assay results: patent US20210070748A1, “INHIBITORS OF BRUTONS TYROSINE KINASE” (Pharmacyclics LLC, priority 2015, published 2021)

Columns and labels:
Assay type in all cases: biochemical
Details in all cases: E compounds, Table 17
[1] = biological target: EGFR (Homo sapiens, UniProt P00533); experiment: Inhibition of a panel of kinases, in vitro HotSpot kinase assay: EGFR
Experimental: (§1) The degree of inhibition of a panel of kinases is determined using the in vitro HotSpot kinase assay (purified enzymes, ^33P-ATP, an appropriate substrate and 1 μM ATP).

[2] = biological target: T1, ITK (Homo sapiens, UniProt Q08881); experiment: Inhibition of a panel of kinases, in vitro HotSpot kinase assay: ITK
T1 sequence (Q08881 1-620): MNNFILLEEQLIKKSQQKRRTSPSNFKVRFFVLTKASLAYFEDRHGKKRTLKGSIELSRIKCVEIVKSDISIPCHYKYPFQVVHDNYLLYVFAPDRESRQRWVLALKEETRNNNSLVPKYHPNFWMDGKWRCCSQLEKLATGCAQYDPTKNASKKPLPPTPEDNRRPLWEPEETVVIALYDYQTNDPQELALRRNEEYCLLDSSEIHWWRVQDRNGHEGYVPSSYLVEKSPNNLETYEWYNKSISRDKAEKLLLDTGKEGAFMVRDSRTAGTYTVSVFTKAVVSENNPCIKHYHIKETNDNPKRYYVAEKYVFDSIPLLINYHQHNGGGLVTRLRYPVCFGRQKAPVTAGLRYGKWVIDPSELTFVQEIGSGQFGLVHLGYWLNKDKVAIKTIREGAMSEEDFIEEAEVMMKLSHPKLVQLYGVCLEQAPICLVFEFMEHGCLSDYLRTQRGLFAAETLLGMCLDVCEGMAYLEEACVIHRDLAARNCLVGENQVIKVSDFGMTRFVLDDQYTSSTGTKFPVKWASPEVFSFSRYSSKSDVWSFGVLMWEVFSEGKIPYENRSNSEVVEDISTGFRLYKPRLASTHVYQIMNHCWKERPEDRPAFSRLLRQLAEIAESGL
Experimental: as §1

[3] = biological target: SRC (Homo sapiens, UniProt P12931); experiment: Inhibition of a panel of kinases, in vitro HotSpot kinase assay: SRC
Sequence of SRC (P12931 whole entry): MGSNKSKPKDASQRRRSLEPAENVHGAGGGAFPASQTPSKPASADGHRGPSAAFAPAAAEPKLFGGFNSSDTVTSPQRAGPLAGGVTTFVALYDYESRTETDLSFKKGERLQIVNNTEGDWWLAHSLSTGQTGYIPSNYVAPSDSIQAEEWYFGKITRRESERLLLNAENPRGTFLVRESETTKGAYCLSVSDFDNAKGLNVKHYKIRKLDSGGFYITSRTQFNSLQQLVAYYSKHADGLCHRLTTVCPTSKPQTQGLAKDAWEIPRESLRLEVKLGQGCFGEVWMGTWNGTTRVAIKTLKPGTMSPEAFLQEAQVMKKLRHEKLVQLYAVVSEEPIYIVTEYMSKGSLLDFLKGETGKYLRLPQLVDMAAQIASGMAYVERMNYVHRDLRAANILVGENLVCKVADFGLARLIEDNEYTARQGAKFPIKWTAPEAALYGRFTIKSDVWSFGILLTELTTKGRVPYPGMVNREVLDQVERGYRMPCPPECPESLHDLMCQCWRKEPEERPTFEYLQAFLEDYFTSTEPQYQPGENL
Experimental: as §1

[4] = biological target: T2, TEC (Homo sapiens, UniProt P42680); experiment: Inhibition of a panel of kinases, in vitro HotSpot kinase assay: TEC
T2 sequence (P42680 1-631): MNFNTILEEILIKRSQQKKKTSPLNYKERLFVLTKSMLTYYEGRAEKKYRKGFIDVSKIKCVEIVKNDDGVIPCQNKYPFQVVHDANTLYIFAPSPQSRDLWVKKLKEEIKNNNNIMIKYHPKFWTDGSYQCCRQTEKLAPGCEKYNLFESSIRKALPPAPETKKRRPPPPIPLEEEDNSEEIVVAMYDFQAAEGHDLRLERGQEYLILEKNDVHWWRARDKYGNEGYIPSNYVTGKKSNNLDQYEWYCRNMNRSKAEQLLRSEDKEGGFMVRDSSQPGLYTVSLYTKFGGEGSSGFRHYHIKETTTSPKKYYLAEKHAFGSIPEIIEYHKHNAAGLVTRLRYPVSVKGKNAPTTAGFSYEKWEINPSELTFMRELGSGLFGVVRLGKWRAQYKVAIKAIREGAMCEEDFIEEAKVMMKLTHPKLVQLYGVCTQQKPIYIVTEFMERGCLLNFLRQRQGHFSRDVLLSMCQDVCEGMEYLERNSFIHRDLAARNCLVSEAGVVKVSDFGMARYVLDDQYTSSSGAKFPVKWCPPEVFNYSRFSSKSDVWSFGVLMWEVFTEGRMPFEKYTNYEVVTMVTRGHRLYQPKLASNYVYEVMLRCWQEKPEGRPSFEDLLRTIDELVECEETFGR
Experimental: as §1

Sequence of EGFR (P00533 25-1210): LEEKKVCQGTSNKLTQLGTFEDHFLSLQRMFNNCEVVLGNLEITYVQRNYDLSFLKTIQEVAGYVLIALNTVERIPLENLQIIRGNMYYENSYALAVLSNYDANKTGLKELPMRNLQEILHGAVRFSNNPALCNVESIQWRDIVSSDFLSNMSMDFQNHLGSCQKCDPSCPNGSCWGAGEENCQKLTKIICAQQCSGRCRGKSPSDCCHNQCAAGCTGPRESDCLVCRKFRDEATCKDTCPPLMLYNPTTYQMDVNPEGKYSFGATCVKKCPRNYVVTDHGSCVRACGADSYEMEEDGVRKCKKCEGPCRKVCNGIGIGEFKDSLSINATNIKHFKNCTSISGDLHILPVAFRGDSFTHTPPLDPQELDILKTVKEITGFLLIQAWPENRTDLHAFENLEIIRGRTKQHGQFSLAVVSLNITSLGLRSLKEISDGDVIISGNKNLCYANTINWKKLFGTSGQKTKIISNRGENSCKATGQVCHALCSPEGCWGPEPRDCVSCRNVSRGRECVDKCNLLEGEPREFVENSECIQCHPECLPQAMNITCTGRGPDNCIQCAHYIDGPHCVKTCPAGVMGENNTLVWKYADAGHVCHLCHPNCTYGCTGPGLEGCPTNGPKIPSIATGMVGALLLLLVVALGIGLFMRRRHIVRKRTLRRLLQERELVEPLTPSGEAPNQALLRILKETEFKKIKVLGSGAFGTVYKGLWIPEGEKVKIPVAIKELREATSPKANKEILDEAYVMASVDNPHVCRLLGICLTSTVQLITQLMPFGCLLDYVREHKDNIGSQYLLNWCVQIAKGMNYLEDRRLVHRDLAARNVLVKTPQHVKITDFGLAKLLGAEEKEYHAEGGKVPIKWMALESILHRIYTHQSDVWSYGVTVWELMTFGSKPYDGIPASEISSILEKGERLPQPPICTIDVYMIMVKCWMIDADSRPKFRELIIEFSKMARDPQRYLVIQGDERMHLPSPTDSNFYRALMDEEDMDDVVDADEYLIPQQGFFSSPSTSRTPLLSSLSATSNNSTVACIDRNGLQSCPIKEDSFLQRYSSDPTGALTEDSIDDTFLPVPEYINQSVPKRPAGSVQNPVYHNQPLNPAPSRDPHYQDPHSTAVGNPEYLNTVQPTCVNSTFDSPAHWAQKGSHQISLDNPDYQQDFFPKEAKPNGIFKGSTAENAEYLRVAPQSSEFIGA

Row | Compound | IC50 [1] | IC50 [2] | IC50 [3] | IC50 [4]
1 | C[C@@H]1CCN(c2cnc(C(N)=O)c(Nc3cnn(C)c3)n2)C[C@@H]1NC(=O)c1ccc(C2CC2)cc1 [Example E-140, 5-((3R,4R)-3-(4-cyclopropylbenzamido)-4-methylpiperidin-1-yl)-3-((1-methyl-1H-pyrazol-4-yl)amino)pyrazine-2-carboxamide] | > 10000 nM | > 10000 nM | > 10000 nM | 1000 to 10000 nM
2 | C[C@@H]1[C@H](NC(=O)c2ccc(C3CC3)cc2)CCCN1c1cnc(C(N)=O)c(Nc2ccc(N3CCN(C4COC4)C[C@@H]3C)cc2)n1 [Example E-142, 5-((2R,3R)-3-(4-cyclopropylbenzamido)-2-methylpiperidin-1-yl)-3-((4-((S)-2-methyl-4-(oxetan-3-yl)piperazin-1-yl)phenyl)amino)pyrazine-2-carboxamide] | 1000 to 10000 nM | 10 to 100 nM | 10 to 100 nM | ≤ 10 nM
3 | C[C@@H]1[C@H](NC(=O)c2ccc(C(C)(C)N3CCCC3)cc2)CCCN1c1cnc(C(N)=O)c(Nc2cnn(C)c2)n1 [Example E-143, 3-((1-methyl-1H-pyrazol-4-yl)amino)-5-((2R,3R)-2-methyl-3-(4-(2-(pyrrolidin-1-yl)propan-2-yl)benzamido)piperidin-1-yl)pyrazine-2-carboxamide] | > 10000 nM | 100 to 1000 nM | 10 to 100 nM | ≤ 10 nM
4 | C[C@@H]1[C@H](NC(=O)c2ccc(C3CC3)cc2)CCCN1c1cnc(C(N)=O)c(Nc2cnc(C3CCOCC3)nc2)n1 [Example E-144, 5-((2R,3R)-3-(4-cyclopropylbenzamido)-2-methylpiperidin-1-yl)-3-((2-(tetrahydro-2H-pyran-4-yl)pyrimidin-5-yl)amino)pyrazine-2-carboxamide] | > 10000 nM | 100 to 1000 nM | 100 to 1000 nM | 100 to 1000 nM
5 | C[C@@H]1[C@H](NC(=O)c2cc(C(C)(C)C)nn2C)CCCN1c1cnc(C(N)=O)c(Nc2cnn(C)c2)n1 [Example E-146, 5-((2R,3R)-3-(3-(tert-butyl)-1-methyl-1H-pyrazole-5-carboxamido)-2-methylpiperidin-1-yl)-3-((1-methyl-1H-pyrazol-4-yl)amino)pyrazine-2-carboxamide] | 1000 to 10000 nM | 100 to 1000 nM | 10 to 100 nM | ≤ 10 nM
6 | C[C@@H]1[C@H](NC(=O)c2ccc(C(C)(C)O)cc2)CCCN1c1cnc(C(N)=O)c(Nc2ccc(C3(C)CCN(C4CC4)CC3)cc2)n1 [Example E-147, 3-((4-(1-cyclopropyl-4-methylpiperidin-4-yl)phenyl)amino)-5-((2R,3R)-3-(4-(2-hydroxypropan-2-yl)benzamido)-2-methylpiperidin-1-yl)pyrazine-2-carboxamide] | 100 to 1000 nM | 10 to 100 nM | ≤ 10 nM | ≤ 10 nM
7 | C[C@@H]1[C@H](NC(=O)c2noc(C(C)(C)C)n2)CCCN1c1cnc(C(N)=O)c(Nc2cnn(C)c2)n1 [Example E-149, 5-(tert-butyl)-N-((2R,3R)-1-(5-carbamoyl-6-((1-methyl-1H-pyrazol-4-yl)amino)pyrazin-2-yl)-2-methylpiperidin-3-yl)-1,2,4-oxadiazole-3-carboxamide] | 1000 to 10000 nM | 1000 to 10000 nM | 1000 to 10000 nM | 100 to 1000 nM
8 | Cn1cc(Nc2nc(N3CCCC(C)(NC(=O)c4ccc(C5CC5)cc4)C3)cnc2C(N)=O)cn1 (stereo not shown) [Example E-150, 5-(3-(4-cyclopropylbenzamido)-3-methylpiperidin-1-yl)-3-((1-methyl-1H-pyrazol-4-yl)amino)pyrazine-2-carboxamide] | > 10000 nM | > 10000 nM | 1000 to 10000 nM | 100 to 1000 nM
9 | Cc1cc(C(=O)N[C@@H]2CCCN(c3cnc(C(N)=O)c(Nc4cnn(C)c4)n3)[C@@H]2C)ccc1C(C)(C)O [Example E-152, 5-((2R,3R)-3-(4-(2-hydroxypropan-2-yl)-3-methylbenzamido)-2-methylpiperidin-1-yl)-3-((1-methyl-1H-pyrazol-4-yl)amino)pyrazine-2-carboxamide] | 1000 to 10000 nM | 100 to 1000 nM | 10 to 100 nM | ≤ 10 nM
10 | C[C@@H]1[C@H](NC(=O)c2ccc3c(c2)C(C)(C)OC3)CCCN1c1cnc(C(N)=O)c(Nc2cnn(C)c2)n1 [Example E-153, 5-((2R,3R)-3-(3,3-dimethyl-1,3-dihydroisobenzofuran-5-carboxamido)-2-methylpiperidin-1-yl)-3-((1-methyl-1H-pyrazol-4-yl)amino)pyrazine-2-carboxamide] | 1000 to 10000 nM | 100 to 1000 nM | 10 to 100 nM | ≤ 10 nM
11 | C[C@@H]1[C@H](NC(=O)c2ccc(-c3ncco3)cc2)CCCN1c1cnc(C(N)=O)c(Nc2cnn(C)c2)n1 [Example E-154, 3-((1-methyl-1H-pyrazol-4-yl)amino)-5-((2R,3R)-2-methyl-3-(4-(oxazol-2-yl)benzamido)piperidin-1-yl)pyrazine-2-carboxamide] | 1000 to 10000 nM | 100 to 1000 nM | 10 to 100 nM | ≤ 10 nM

The remaining lines, values ahead:

Row | IC50 [1] | IC50 [2] | IC50 [3] | IC50 [4] | Compound
12 | 100 to 1000 nM | 1000 to 10000 nM | 100 to 1000 nM | 100 to 1000 nM | Cn1cc(Nc2nc(N3CCC4CCN(C(=O)c5ccc(C6CC6)cc5)C4C3)cnc2C(N)=O)cn1 (stereo not shown) [Example E-141, 5-(1-(4-cyclopropylbenzoyl)octahydro-6H-pyrrolo[2,3-c]pyridin-6-yl)-3-((1-methyl-3H-pyrazol-4-yl)amino)pyrazine-2-carboxamide]
13 | 100 to 1000 nM | 100 to 1000 nM | 10 to 100 nM | ≤ 10 nM | C[C@@H]1[C@H](NC(=O)c2cccc(C(C)(C)O)c2)CCCN1c1cnc(C(N)=O)c(Nc2cnn(C)c2)n1 [Example E-145, 5-((2R,3R)-3-(3-(2-hydroxypropan-2-yl)benzamido)-2-methylpiperidin-1-yl)-3-((1-methyl-1H-pyrazol-4-yl)amino)pyrazine-2-carboxamide]
14 | 100 to 1000 nM | 10 to 100 nM | 10 to 100 nM | ≤ 10 nM | C[C@@H]1[C@H](NC(=O)c2ccc(C3CC3)cc2)CCCN1c1cnc(C(N)=O)c(Nc2ccc(N3CCN(C)C[C@@H]3C)cc2)n1 [Example E-148, 5-((2R,3R)-3-(4-cyclopropylbenzamido)-2-methylpiperidin-1-yl)-3-((4-((S)-2,4-dimethylpiperazin-1-yl)phenyl)amino)pyrazine-2-carboxamide]
15 | 100 to 1000 nM | 100 to 1000 nM | 10 to 100 nM | ≤ 10 nM | CCC(O)(CC)c1ccc(C(=O)N[C@@H]2CCCN(c3cnc(C(N)=O)c(Nc4cnn(C)c4)n3)[C@@H]2C)cc1 [Example E-151, 5-((2R,3R)-3-(4-(3-hydroxypentan-3-yl)benzamido)-2-methylpiperidin-1-yl)-3-((1-methyl-1H-pyrazol-4-yl)amino)pyrazine-2-carboxamide]
16 | 100 to 1000 nM | 100 to 1000 nM | 10 to 100 nM | ≤ 10 nM | Cc1nc(-c2ccc(C(=O)N[C@@H]3CCCN(c4cnc(C(N)=O)c(Nc5cnn(C)c5)n4)[C@@H]3C)cc2)cs1 [Example E-155, 3-((1-methyl-1H-pyrazol-4-yl)amino)-5-((2R,3R)-2-methyl-3-(4-(2-methylthiazol-4-yl)benzamido)piperidin-1-yl)pyrazine-2-carboxamide]
